# ChEMBL document CHEMBL3132762, “The effect of a thieno[2,3-b]pyridine PLC- inhibitor on the proliferation, morphology, migration and cell cycle of breast cancer cells” (Medchemcomm, 2014)
# Activity calls are given as the source filed them. The rule behind the calls is not given here.
# How the values were obtained:
# MDA-MB-231 [1] = test: Reduction in red fluorescent mKATE2 labelled human MDA-MB-231 cell number at 1 uM after 24 hrs by fluorescent microscopic analysis; assay type: ADME, cell-based; conditions: mda-mb-231, 24 h
# MDA-MB-468 [2] = test: Cell cycle arrest in human MDA-MB-468 cells assessed as cell accumulation at S phase at 1 uM after 16 to 24 hrs by flow cytometry; assay type: functional, cell-based
# MDA-MB-231 [3] = test: Cell cycle arrest in human MDA-MB-231 cells assessed as cell accumulation at S phase at 1 uM after 16 to 24 hrs by flow cytometry; assay type: functional, cell-based
# T47D [4] = test: Cell cycle arrest in human T47D cells assessed as cell accumulation at S phase at 1 uM after 16 to 24 hrs by flow cytometry; assay type: functional, cell-based
# MCF7 [5] = test: Cell cycle arrest in human MCF7 cells assessed as cell accumulation at S phase at 1 uM after 16 to 24 hrs by flow cytometry; assay type: functional, cell-based
# MDA-MB-468 [6] = test: Cell cycle arrest in human MDA-MB-468 cells assessed as cell shifting from dominant G0/G1 phases to G2/M phases at 1 uM after 16 to 24 hrs by flow cytometry; assay type: functional, cell-based
# MDA-MB-231 [7] = test: Cell cycle arrest in human MDA-MB-231 cells assessed as cell shifting from dominant G0/G1 phases to G2/M phases at 1 uM after 16 to 24 hrs by flow cytometry; assay type: functional, cell-based
# T47D [8] = test: Cell cycle arrest in human T47D cells assessed as cell shifting from dominant G0/G1 phases to G2/M phases at 1 uM after 16 to 24 hrs by flow cytometry; assay type: functional, cell-based
# MCF7 [9] = test: Cell cycle arrest in human MCF7 cells assessed as cell shifting from dominant G0/G1 phases to G2/M phases at 1 uM after 16 to 24 hrs by flow cytometry; assay type: functional, cell-based
# MDA-MB-231 [10] = test: Inhibition of red fluorescent mKATE2 labelled human MDA-MB-231 cell migration assessed as displacement of wound edges at 1 uM after 24 hrs by wound healing assay; assay type: functional; conditions: MDA-MB-231, 24 h
# MDA-MB-231 [11] = test: Induction of morphological changes in red fluorescent labelled human MDA-MB-231 cells assessed as rounded-up cells after 16 hrs by microscopic analysis; assay type: functional, cell-based
# MDA-MB-436 = test: Inhibition of oestrogen, progesterone and HER2/neu receptor triple negative human MDA-MB-436 cell proliferation assessed as [3H]thymidine incorporation into DNA helix after 3 days by betaplate counting analysis; assay type: functional
# MDA-MB-435 = test: Inhibition of oestrogen, progesterone and HER2/neu receptor triple negative human MDA-MB-435 cell proliferation assessed as [3H]thymidine incorporation into DNA helix after 3 days by betaplate counting analysis; assay type: functional, cell-based
# HBL-100 = test: Inhibition of oestrogen, progesterone and HER2/neu receptor triple negative human HBL100 cell proliferation assessed as [3H]thymidine incorporation into DNA helix after 3 days by betaplate counting analysis; assay type: functional, cell-based
# MDA-MB-231 [12] = test: Inhibition of oestrogen, progesterone and HER2/neu receptor triple negative human MDA-MB-231 cell proliferation assessed as [3H]thymidine incorporation into DNA helix after 3 days by betaplate counting analysis; assay type: functional, cell-based
# BT-20 = test: Inhibition of oestrogen, progesterone and HER2/neu receptor triple negative human BT20 cell proliferation assessed as [3H]thymidine incorporation into DNA helix after 3 days by betaplate counting analysis; assay type: functional, cell-based
# MDA-MB-468 [13] = test: Inhibition of oestrogen, progesterone and HER2/neu receptor triple negative human MDA-MB-468 cell proliferation assessed as [3H]thymidine incorporation into DNA helix after 3 days by betaplate counting analysis; assay type: functional, cell-based
# MDA-MB-453 = test: Inhibition of oestrogen, progesterone and HER2/neu receptor triple negative human MDA-MB-453 cell proliferation assessed as [3H]thymidine incorporation into DNA helix after 3 days by betaplate counting analysis; assay type: functional, cell-based
# SK-BR-3 = test: Inhibition of HER2-overexpressing human SKBR3 cell proliferation assessed as [3H]thymidine incorporation into DNA helix after 3 days by betaplate counting analysis; assay type: functional, cell-based
# [14] = Inhibition of ER-positive human KPL1 cell proliferation assessed as [3H]thymidine incorporation into DNA helix after 3 days by betaplate counting analysis; assay type: functional, cell-based; conditions: KPL-1
# T47D [15] = test: Inhibition of ER-positive human T47D cell proliferation assessed as [3H]thymidine incorporation into DNA helix after 3 days by betaplate counting analysis; assay type: functional, cell-based
# [16] = Inhibition of ER-positive human TamR6 cell proliferation assessed as [3H]thymidine incorporation into DNA helix after 3 days by betaplate counting analysis; assay type: functional, cell-based
# [17] = Inhibition of ER-positive human TamC6 cell proliferation assessed as [3H]thymidine incorporation into DNA helix after 3 days by betaplate counting analysis; assay type: functional, cell-based
# [18] = Inhibition of ER-positive human TamR3 cell proliferation assessed as [3H]thymidine incorporation into DNA helix after 3 days by betaplate counting analysis; assay type: functional, cell-based
# [19] = Inhibition of ER-positive human TamC3 cell proliferation assessed as [3H]thymidine incorporation into DNA helix after 3 days by betaplate counting analysis; assay type: functional, cell-based
# [20] = Inhibition of ER-positive human TamR7 cell proliferation assessed as [3H]thymidine incorporation into DNA helix after 3 days by betaplate counting analysis; assay type: functional, cell-based
# MCF7 [21] = test: Inhibition of ER-positive human MCF7 cell proliferation assessed as [3H]thymidine incorporation into DNA helix after 3 days by betaplate counting analysis; assay type: functional, cell-based
# MDA-MB-231 [22] = test: Induction of morphological changes in red fluorescent labelled human MDA-MB-231 cells assessed as rounded-up cells at 6.25 to 1000 nM after 16 hrs by microscopic analysis; assay type: functional, cell-based
# MDA-MB-231 [23] = test: Growth inhibition of human MDA-MB-231 cells after 3 days by DAPI staining; assay type: functional; conditions: MDA-MB-231, 72 h
smiles,measurement,setting,value
Nc1c(C(=O)Nc2cccc(Cl)c2)sc2nc3c(cc12)C(=O)CCC3,Activity,MDA-MB-231 [1],Toxic
same,Activity,MDA-MB-468 [2],inactive
same,Activity,MDA-MB-231 [3],inactive
same,Activity,T47D [4],inactive
same,Activity,MCF7 [5],inactive
same,Activity,MDA-MB-468 [6],Active
same,Activity,MDA-MB-231 [7],Active
same,Activity,T47D [8],Active
same,Activity,MCF7 [9],Active
same,inhibition at 1 µM,MDA-MB-231 [10],50%
same,Activity,MDA-MB-231 [11],Active
same,IC50,MDA-MB-436,157 nM
same,IC50,MDA-MB-435,77 nM
same,IC50,HBL-100,265 nM
same,IC50,MDA-MB-231 [12],357 nM
same,IC50,BT-20,194 nM
same,IC50,MDA-MB-468 [13],163 nM
same,IC50,MDA-MB-453,186 nM
same,IC50,SK-BR-3,138 nM
same,IC50,[14],106 nM
same,IC50,T47D [15],570 nM
same,IC50,[16],105 nM
same,IC50,[17],102 nM
same,IC50,[18],120 nM
same,IC50,[19],122 nM
same,IC50,[20],154 nM
same,IC50,MCF7 [21],125 nM
CC(=O)Nc1cccc(-n2c(=O)n(C3CC3)c(=O)c3c(Nc4ccc(I)cc4F)n(C)c(=O)c(C)c32)c1 [TRAMETINIB],Activity,MDA-MB-231 [22],inactive
same,GI50,MDA-MB-231 [23],25 nM
